Legend:
leukemia P388 = test: Test for leukemia P388, IP/IP, D1; format: in vivo, CDF1 hybrid mice; conditions: for Number of survivors: day D30; for T/C %: survival time
Method: The antitumour activity was tested in vivo on various tumours inoculated in various ways according to the following general protocol:
All the male or female mice are inoculated on day D0 with a known quantity of viable tumour cells for ascitic tumours or with a known tumour fragment for solid tumours.
They are then distributed into various groups. Each group, corresponding to the animals treated by the product under test, is made up of 10 mice. The product under test is dissolved in distilled water and it is administered n times (Dx-Dy), n, y, and x varying according to the protocol chosen, at the rate of 0.1 ml of solution per 10 g by weight of mice treated and at specific doses for each protocol.
The "negative control" group, corresponding to the animals which are not treated by the product, contains 2√N animals, N being equal to or greater than the total number of mice treated by the product in the same experiment.
Finally, the tests can also be carried out at the same time as the study of a group called "positive control", of ten animals, which is treated by a molecule, known for its antitumour activity and which can vary according to the protocol chosen, in the same conditions as the groups treated by the product under test.
The antitumour activity is evaluated, in the case of ascitic tumours, by considering the increase in the survival time of the animals treated in comparison to that of the animals in the "negative control" group, according to the formula: [formula]
Also, a product is considered as toxic at the dose studied when this T/C value is equal to or less than 85%. In addition, a product is also considered as toxic at the dose studied when the weight variation, expressed in grams and calculated by the formula: […]
The tests are carried out with CDF1 hybrid mice inoculated by intraperitoneal route with 10^6 leukemia cells from the P 388 line. The compound under test is administered for 5 successive days (D1-D5) by intraperitoneal route. The positive control for the test is 5-fluorouracile which is administered in the same conditions. The number of surviving animals is evaluated on day D30.
(b) Test for Leukemia P388, IP/IP, D1 (GERAN et al. Cancer chemother., 1972, 2, 07-57).
The test is carried out according to the preceding protocol, the compound under test being administered only on day D1.

melanoma B 16 = test: Test for melanoma B 16; format: in vivo, BDF1 hybrid mice; conditions: D1-D9; for Number of survivors: day D60; for T/C %: survival time
How it was run: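 BDF1 mice inoculated i.p. with 0.5 ml B16 melanoma homogenate (1 g tumour in 10 ml physiological serum); compound given i.p. daily D1–D9, Cis-platine positive control under same conditions. Surviving animals counted on D60; activity as survival increase vs untreated controls (T/C), toxicity if T/C ≤85%.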

in vivo [1] = test: in vivo; parameters: species or system CDF1 hybrid mice; conditions: mouse, ip, 50 mg/kg
Excerpt: The compounds of the invention benefit from a good tolerance and a weak toxicity.
Thus the administration, to healthy CDF1 hybrid mice, in a single injection by intraperitoneal route, of the compounds under test, has enabled it to be established that the product is perfectly tolerated at a high dosage since the survival rate of the animals of the experiment was 100 out of 100 thirteen days after administration.

in vivo [2] = test: in vivo; parameters: species or system female CDF1 hybrid mice; conditions: mouse, iv
Method: In addition the administration, to healthy female CDF1 hybrid mice, in a single injection by intravenous route with a perfusor, lasting 4 minutes, of the compounds under test in solution in physiological serum at a rate of 0.1 ml of solution per 10 g weight of the animals has enabled it to be established that the compounds are also well tolerated at a high dosage in these conditions.

leukemia P 388 = test: Test of leukemia P 388; IP/IP, D1-5; format: in vivo, CDF1 hybrid mice; conditions: D1-D5; for Number of survivors: day D30; for T/C %: survival time
How it was run: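 CDF1 hybrid mice received 10^6 P 388 cells intraperitoneally, then compound in distilled water by intraperitoneal route daily D1-D5, 10 mice per group, 5-fluorouracil as positive control. Activity judged as T/C survival time versus untreated controls, survivors counted at D30; T/C ≤85% or day 5 minus day 1 weight change ≤ −4 g counted as toxic.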

With `CCN(CC)CCCNc1ncc(C)c2[nH]c3ccc(O)cc3c12` [Derivative No. 7, 1-(diethylaminopropylamino)-8-hydroxy-4-methyl-5H-pyrido[4,3-b]indole] the “Median day of survival” value (leukemia P388; 10 mg/kg IP) was 15.1 days, the “Variation by weight (g)” value (leukemia P388; 10 mg/kg IP) was “+1.2 g” and the Number of survivors (leukemia P388; 10 mg/kg IP) was 0/10. For the same compound, the T/C % (leukemia P388; 10 mg/kg IP) was 129%, the “Median day of survival” value (leukemia P388; 20 mg/kg IP) was 16.25 days and the “Variation by weight (g)” value (leukemia P388; 20 mg/kg IP) was “+0.2 g”. For the same compound, the Number of survivors (leukemia P388; 20 mg/kg IP) was 0/10, the T/C % (leukemia P388; 20 mg/kg IP) was 139% and the “Median day of survival” value (leukemia P388; 40 mg/kg IP) was 15.9 days. For the same compound, the “Variation by weight” value (leukemia P388; 40 mg/kg IP) was -0.2 g, the Number of survivors (leukemia P388; 40 mg/kg IP) was 0/10 and the T/C % (leukemia P388; 40 mg/kg IP) was 136%. For the same compound, the “Median day of survival” value (leukemia P388; 80 mg/kg IP) was 2.3 days, the “Variation by weight” value (leukemia P388; 80 mg/kg IP) was -1.7 g and the Number of survivors (leukemia P388; 80 mg/kg IP) was 0/10. The T/C % (leukemia P388; 80 mg/kg IP) was 20%, the “Median day of survival” value (melanoma B 16; 2.5 mg/kg IP) was 34 days and the “Variation by weight (g)” value (melanoma B 16; 2.5 mg/kg IP) was “+3.6 g”. The Number of survivors (melanoma B 16; 2.5 mg/kg IP) was 0/10, the T/C % (melanoma B 16; 2.5 mg/kg IP) was 124% and the “Median day of survival” value (melanoma B 16; 5 mg/kg IP) was 48 days. For the same compound, the “Variation by weight” value (melanoma B 16; 5 mg/kg IP) was -0.1 g, the Number of survivors (melanoma B 16; 5 mg/kg IP) was 0/10 and the T/C % (melanoma B 16; 5 mg/kg IP) was 174%. For the same compound, the “Median day of survival” value (melanoma B 16; 10 mg/kg IP) was 56.25 days, the “Variation by weight (g)” value (melanoma B 16; 10 mg/kg IP) was “+1.6 g” and the Number of survivors (melanoma B 16; 10 mg/kg IP) was 4/10. For the same compound, the T/C % (melanoma B 16; 10 mg/kg IP) was 205%, the “Median day of survival” value (melanoma B 16; 20 mg/kg IP) was 58 days and the “Variation by weight” value (melanoma B 16; 20 mg/kg IP) was -0.8 g. For the same compound, the Number of survivors (melanoma B 16; 20 mg/kg IP) was 5/10, the T/C % (melanoma B 16; 20 mg/kg IP) was 211% and the “Median day of survival” value (melanoma B 16; 30 mg/kg IP) was 9.0 days. For the same compound, the “Variation by weight” value (melanoma B 16; 30 mg/kg IP) was -1.0 g, the Number of survivors (melanoma B 16; 30 mg/kg IP) was 0/10 and the T/C % (melanoma B 16; 30 mg/kg IP) was 33%. It also gave a survival at 312 h (in vivo [1]) of 100%, a survival at 192 h (in vivo [2]; 25 mg/kg) of 100% and a survival at 192 h (in vivo [2]; 30 mg/kg) of 100%. For the same compound, the “Median day of survival” value (leukemia P 388; 0.625 mg/kg IP) was 14.3 days, the “Variation by weight (g)” value (leukemia P 388; 0.625 mg/kg IP) was “+0.3 g” and the Number of survivors (leukemia P 388; 0.625 mg/kg IP) was 0/10. The T/C % (leukemia P 388; 0.625 mg/kg IP) was 127%, the “Median day of survival” value (leukemia P 388; 1.25 mg/kg IP) was 17.25 days and the “Variation by weight (g)” value (leukemia P 388; 1.25 mg/kg IP) was “+0.3 g”. For the same compound, the Number of survivors (leukemia P 388; 1.25 mg/kg IP) was 0/10, the T/C % (leukemia P 388; 1.25 mg/kg IP) was 153% and the “Median day of survival” value (leukemia P 388; 2.5 mg/kg IP) was 18.25 days. The “Variation by weight (g)” value (leukemia P 388; 2.5 mg/kg IP) was “+0.1 g”, the Number of survivors (leukemia P 388; 2.5 mg/kg IP) was 0/10 and the T/C % (leukemia P 388; 2.5 mg/kg IP) was 162%. The “Median day of survival” value (leukemia P 388; 5 mg/kg IP) was 19.25 days, the “Variation by weight (g)” value (leukemia P 388; 5 mg/kg IP) was “+0.3 g” and the Number of survivors (leukemia P 388; 5 mg/kg IP) was 0/10. The T/C % (leukemia P 388; 5 mg/kg IP) was 170%, the “Median day of survival” value (leukemia P 388; 10 mg/kg IP) was 20.9 days and the “Variation by weight” value (leukemia P 388; 10 mg/kg IP) was -0.2 g. The Number of survivors (leukemia P 388; 10 mg/kg IP) was 0/10, the T/C % (leukemia P 388; 10 mg/kg IP) was 185% and the “Median day of survival” value (leukemia P 388; 15 mg/kg IP) was 23.55 days. The “Variation by weight (g)” value (leukemia P 388; 15 mg/kg IP) was “+1.6 g”, the Number of survivors (leukemia P 388; 15 mg/kg IP) was 3/10 and the T/C % (leukemia P 388; 15 mg/kg IP) was 208%. The “Median day of survival” value (leukemia P 388; 20 mg/kg IP) was 27.0 days, the “Variation by weight” value (leukemia P 388; 20 mg/kg IP) was -1.1 g and the Number of survivors (leukemia P 388; 20 mg/kg IP) was 1/10. The T/C % (leukemia P 388; 20 mg/kg IP) was 238%, the “Median day of survival” value (leukemia P 388; 30 mg/kg IP) was 9.25 days and the “Variation by weight” value (leukemia P 388; 30 mg/kg IP) was 0.0 g. For the same compound, the Number of survivors (leukemia P 388; 30 mg/kg IP) was 0/10 and the T/C % (leukemia P 388; 30 mg/kg IP) was 81%.

Source: US4835160A, “Derivatives of pyridoindole, having anti-tumor properties” (Sanofi, priority 1986, dated 1989)
